Measurements: the NIST ThermoML archive (doi:10.1021/je900632q)

Assay: xn = mol fraction of the nth substance listed
Conditions: 101 kPa, Liquid

CCCCn1cc[n+](C)c1.N#CN=C=[N-] [1-butyl-3-methylimidazolium dicyanamide] + O
Conditions | mass density [kg/m3] | viscosity [mPa·s]
278.15 K, x2 = 0 | 1075.8 | 82.07
278.15 K, x2 = 0.059 | 1075.3 | 74.2
278.15 K, x2 = 0.1963 | 1074.3 | 58.7
278.15 K, x2 = 0.2736 | 1072.8 | 48.94
278.15 K, x2 = 0.35 | 1071.1 | 37.6
278.15 K, x2 = 0.3974 | 1069.4 | 31.98
278.15 K, x2 = 0.4831 | 1066.2 | 23.22
288.15 K, x2 = 0 | 1069.4 | 48.93
288.15 K, x2 = 0.059 | 1068.9 | 44.99
288.15 K, x2 = 0.1963 | 1067.8 | 36.45
288.15 K, x2 = 0.2736 | 1066.4 | 30.87
288.15 K, x2 = 0.35 | 1064.6 | 24.28
288.15 K, x2 = 0.3974 | 1062.9 | 20.88
288.15 K, x2 = 0.4831 | 1059.6 | 15.38
298.15 K, x2 = 0 | 1063.1 | 31.8
298.15 K, x2 = 0.059 | 1062.5 | 29.55
298.15 K, x2 = 0.1963 | 1061.4 | 24.4
298.15 K, x2 = 0.2736 | 1059.9 | 20.94
298.15 K, x2 = 0.35 | 1059.1 | 16.75
298.15 K, x2 = 0.3974 | 1056.3 | 14.52
298.15 K, x2 = 0.4831 | 1052.9 | 10.8
308.15 K, x2 = 0 | 1056.8 | 21.79
308.15 K, x2 = 0.059 | 1056.2 | 20.6
308.15 K, x2 = 0.1963 | 1055 | 17.29
308.15 K, x2 = 0.2736 | 1053.6 | 15
308.15 K, x2 = 0.35 | 1051.6 | 12.16
308.15 K, x2 = 0.3974 | 1049.8 | 10.61
308.15 K, x2 = 0.4831 | 1046.2 | 7.951
318.15 K, x2 = 0 | 1050.6 | 15.88
318.15 K, x2 = 0.059 | 1050.1 | 15.09
318.15 K, x2 = 0.1963 | 1048.7 | 12.82
318.15 K, x2 = 0.2736 | 1047.3 | 11.22
318.15 K, x2 = 0.35 | 1045.2 | 9.198
318.15 K, x2 = 0.3974 | 1043.3 | 8.072
318.15 K, x2 = 0.4831 | 1039.6 | 6.072
328.15 K, x2 = 0 | 1044.4 | 12.06
328.15 K, x2 = 0.059 | 1043.9 | 11.49
328.15 K, x2 = 0.1963 | 1042.4 | 9.885
328.15 K, x2 = 0.2736 | 1041 | 8.702
328.15 K, x2 = 0.35 | 1038.8 | 7.202
328.15 K, x2 = 0.3974 | 1036.9 | 6.346
328.15 K, x2 = 0.4831 | 1033 | 4.792
338.15 K, x2 = 0 | 1038.2 | 9.475
338.15 K, x2 = 0.059 | 1037.7 | 9.047
338.15 K, x2 = 0.1963 | 1036.2 | 7.852
338.15 K, x2 = 0.2736 | 1034.7 | 6.95
338.15 K, x2 = 0.35 | 1032.4 | 5.798
338.15 K, x2 = 0.3974 | 1030.5 | 5.126
338.15 K, x2 = 0.4831 | 1026.4 | 3.884
348.15 K, x2 = 0 | 1032.1 | 7.643
348.15 K, x2 = 0.059 | 1031.5 | 7.314
348.15 K, x2 = 0.1963 | 1030 | 6.397
348.15 K, x2 = 0.2736 | 1028.5 | 5.688
348.15 K, x2 = 0.35 | 1026.1 | 4.777
348.15 K, x2 = 0.3974 | 1024.1 | 4.237
348.15 K, x2 = 0.4831 | 1019.8 | 3.223
358.15 K, x2 = 0 | 1025.8 | 6.304
358.15 K, x2 = 0.059 | 1025.3 | 6.048
358.15 K, x2 = 0.1963 | 1023.8 | 5.322
358.15 K, x2 = 0.2736 | 1022.3 | 4.748
358.15 K, x2 = 0.35 | 1019.8 | 4.007
358.15 K, x2 = 0.3974 | 1017.7 | 3.577
358.15 K, x2 = 0.4831 | 1013.2 | 2.711
